The source of these data is patent US20240124444A1 (Celgene Corporation, priority 2020, published 2024).

Read-outs that look alike come from different tables or passages of the source. Bounds are passed on as bounds.

The experiment relates to C. parvum strain UGA1. As to the kind of experiment: C. parvum growth inhibition assay (Nluc luminescence in HCT-8 cells). The settings on record: Cryptosporidium parvum; for inhibition at 1 µM / inhibition at 10 µM: HCT-8; for inhibition at 1 µM: read-out: % inh @ 1 uM C. parvum; for inhibition at 10 µM: read-out: % inh @ 10 uM C. parvum; for EC50: HCT-8, 48 h, C. parvum growth inhibition in HCT-8 cells, 48 hours, 6 concentrations 10-0.04 μM. Type of experiment: cell-based, Cryptosporidium parvum.

[1] abbreviates: single point inhibition at 1 uM.
[2] abbreviates: single point inhibition at 10 uM.
Setting [3] is: single point inhibition @ 10 uM.

`Cc1cc(-c2cc3cnc(NC(=O)N4CCCC4)cc3[nH]2)ccn1` [Example 261, N-(2-(2-methylpyridin-4-yl)-1H-pyrrolo[3,2-c]pyridin-6-yl)pyrrolidine-1-carboxamide]: the inhibition at 1 µM under setting [1] is 0 to 33%. Besides, the inhibition at 10 µM under setting [2] fell in the range of 0 to 33%.
For the compound `O[C@H]1CC[C@@H](Nc2cc3[nH]c(-c4cccnc4)cc3cn2)CC1` [Example 251, (1s,4s)-4-(2-(pyridin-3-yl)-1H-pyrrolo[3,2-c]pyridin-6-ylamino)cyclohexanol], the inhibition at 1 µM under setting [1] fell in the range of 0 to 33%. The inhibition at 10 µM under setting [2] was in the range of 0 to 33%.
For the compound `COc1nccc(-c2cc3cnc(NC(=O)c4cnn(C(C)C)c4)cc3[nH]2)n1` [Example 177, 1-isopropyl-N-(2-(2-methoxypyrimidin-4-yl)-1H-pyrrolo[3,2-c]pyridin-6-yl)-1H-pyrazole-4-carboxmaide], the inhibition at 1 µM (single point inhibition @ 1 uM) lay in the range of 0 to 33%. The inhibition at 10 µM under setting [3] lay within 67 to 100%.
What is called EC50 is the concentration that produces a half-maximal response. `Cn1c(-c2ccnc(NCC(F)(F)F)n2)cc2cnc(NC3CCOCC3)cc21` [Example 358, 1-methyl-N-(tetrahydro-2H-pyran-4-yl)-2-(2-(2,2,2-trifluoroethylamino)pyrimidin-4-yl)-1H-pyrrolo[3,2-c]pyridin-6-amine]: the EC50 is below 0.5 µM.
For the compound `Cn1c(-c2cccnc2)cc2cnc(Nc3cccc(-c4nc[nH]n4)c3)cc21` [Example 275, N-(3-(1H-1,2,4-triazol-3-yl)phenyl)-1-methyl-2-(pyridin-3-yl)-1H-pyrrolo[3,2-c]pyridin-6-amine], the inhibition at 1 µM under setting [1] fell in the range of 0 to 33%. The inhibition at 10 µM under setting [2] fell in the range of 0 to 33%.
Regarding `Cc1cc(-c2cc3cnc(NC(=O)C4CC4)cc3n2CCO)ccn1` [Example 93, N-(1-(2-hydroxyethyl)-2-(2-methylpyridin-4-yl)-1H-pyrrolo[3,2-c]pyridin-6-yl)cyclopropanecarboxamide], the EC50 was above 1 µM. The inhibition at 1 µM (single point inhibition @ 1 uM) was in the range of 0 to 33%. Also, under setting [3], the inhibition at 10 µM lay within 0 to 33%.
The compound `COc1nccc(-c2cc3cnc(NC(=O)CC4COC4)cc3n2C)n1` [Example 87, N-(2-(2-methoxypyrimidin-4-yl)-1-methyl-1H-pyrrolo[3,2-c]pyridin-6-yl)-2-(oxetan-3-yl)acetamide] gave a concentration for a half-maximal effect (EC50) above 1 µM. Further, the inhibition at 1 µM (single point inhibition @ 1 uM) fell in the range of 33 to 66%. For the same compound, under setting [3], the inhibition at 10 µM lay in the range of 0 to 33%.
Take `CC(=O)Nc1cc2[nH]c(-c3cccnc3)cc2cn1` [Example 198, N-(2-(pyridin-3-yl)-1H-pyrrolo[3,2-c]pyridin-6-yl)acetamide]: the inhibition at 1 µM under setting [1] was 0 to 33%. The inhibition at 10 µM under setting [2] fell in the range of 67 to 100%.
Turning to `COCc1cc2cnc(NC(=O)c3cnn(C)c3)cc2[nH]1` [Example 260, N-(2-(methoxymethyl)-1H-pyrrolo[3,2-c]pyridin-6-yl)-1-methyl-1H-pyrazole-4-carboxamide], under setting [1], the inhibition at 1 µM lay within 0 to 33%. Moreover, under setting [2], the inhibition at 10 µM fell in the range of 0 to 33%.
On to `O=C(Nc1cc2[nH]c(-c3ccncc3)cc2cn1)C1CCCC1` [Example 137, N-(2-(pyridin-4-yl)-1H-pyrrolo[3,2-c]pyridin-6-yl)cyclopentanecarboxamide], for which the inhibition at 1 µM (single point inhibition @ 1 uM) is 0 to 33%. For the same compound, the inhibition at 10 µM under setting [3] was 67 to 100%.
Consider `COc1nccc(-c2cc3cnc(NC(=O)c4cnn(CC5CCOC5)c4)cc3[nH]2)n1` (stereo in doubt) [Example 156, (S)-N-(2-(2-methoxypyrimidin-4-yl)-1H-pyrrolo[3,2-c]pyridin-6-yl)-1-((tetrahydrofuran-3-yl)methyl)-1H-pyrazole-4-carboxamide], for which the inhibition at 1 µM (single point inhibition @ 1 uM) lay within 0 to 33%. Moreover, under setting [3], the inhibition at 10 µM lay in the range of 67 to 100%.
Compound `O=C(Nc1cc2[nH]c(C3CC(F)(F)C3)cc2cn1)C1CC1` [Example 53, N-(2-(3,3-difluorocyclobutyl)-1H-pyrrolo[3,2-c]pyridin-6-yl)cyclopropanecarboxamide] showed an EC50 above 1 µM.
Turning to `Cc1cc(-c2cc3cnc(NC(=O)c4cnn(C)c4)cc3[nH]2)ncn1` [Example 328, 1-methyl-N-(2-(6-methylpyrimidin-4-yl)-1H-pyrrolo[3,2-c]pyridin-6-yl)-1H-pyrazole-4-carboxamide], the inhibition at 1 µM under setting [1] was in the range of 0 to 33%. Moreover, the inhibition at 10 µM under setting [2] was 0 to 33%.
Regarding `CC(C)n1cc(C(=O)Nc2cc3c(cn2)cc(-c2ccnc(NCC(F)F)n2)n3C)cn1` [Example 169, N-(2-(2-(2,2-difluoroethylamino)pyrimidin-4-yl)-1-methyl-1H-pyrrolo[3,2-c]pyridin-6-yl)-1-isopropyl-1H-pyrazole-4-carboxamide], the inhibition at 1 µM (single point inhibition @ 1 uM) was 0 to 33%. The inhibition at 10 µM under setting [3] was in the range of 67 to 100%.
Take `CCOc1nccc(-c2cc3cnc(NC(=O)c4cnn(C)c4)cc3n2CC(C)C)n1` [Example 316, N-(2-(2-ethoxypyrimidin-4-yl)-1-isobutyl-1H-pyrrolo[3,2-c]pyridin-6-yl)-1-methyl-1H-pyrazole-4-carboxamide]: under setting [1], the inhibition at 1 µM is 0 to 33%. In addition, the inhibition at 10 µM under setting [2] lay within 0 to 33%.
As for `c1ccc(-c2cc3cnc(NC4CCOCC4)cc3[nH]2)nc1` [Example 349, 2-(pyridin-2-yl)-N-(tetrahydro-2H-pyran-4-yl)-1H-pyrrolo[3,2-c]pyridin-6-amine], the EC50 is above 1 µM.
Turning to `CC(C)n1cc(C(=O)Nc2cc3[nH]c(-c4ccnc(N(C)CC(F)(F)F)n4)cc3cn2)cn1` [Example 232, 1-isopropyl-N-(2-(2-(methyl(2,2,2-trifluoroethyl)amino)pyrimidin-4-yl)-1H-pyrrolo[3,2-c]pyridin-6-yl)-1H-pyrazole-4-carboxamide], the inhibition at 1 µM under setting [1] lay in the range of 0 to 33%. Besides, the inhibition at 10 µM under setting [2] was 33 to 66%.
Take `Cn1cc(-c2cc3cnc(Nc4ccc(C(F)(F)F)cc4)cc3[nH]2)cn1` [Example 222]: the inhibition at 10 µM under setting [2] was 33 to 66%.
Take `Cc1cc(-c2cc3cnc(NC(=O)OC4CCOC4)cc3[nH]2)ccn1` (stereo in doubt) [Example 152, (R)-tetrahydrofuran-3-yl 2-(2-methylpyridin-4-yl)-1H-pyrrolo[3,2-c]pyridin-6-ylcarbamate]: the inhibition at 1 µM (single point inhibition @ 1 uM) was 0 to 33%. Also, the inhibition at 10 µM under setting [3] is 67 to 100%.
Regarding `Cc1nn(C)cc1C(=O)Nc1cc2[nH]c(-c3ccnc(OCC(F)(F)F)n3)cc2cn1` [Example 226, 1,3-dimethyl-N-(2-(2-(2,2,2-trifluoroethoxy)pyrimidin-4-yl)-1H-pyrrolo[3,2-c]pyridin-6-yl)-1H-pyrazole-4-carboxamide], under setting [1], the inhibition at 1 µM was 0 to 33%. Also, under setting [2], the inhibition at 10 µM fell in the range of 33 to 66%.
As for `CCOc1nccc(-c2cc3cnc(NC(=O)c4cnn(CCO)c4C)cc3[nH]2)n1` [Example 230, N-(2-(2-ethoxypyrimidin-4-yl)-1H-pyrrolo[3,2-c]pyridin-6-yl)-1-(2-hydroxyethyl)-5-methyl-1H_ pyrazole-4-carboxamide], the inhibition at 1 µM under setting [1] was in the range of 0 to 33%. Besides, the inhibition at 10 µM under setting [2] is 33 to 66%.
Take `COc1nccc(-c2cc3cnc(NC(=O)c4ccc(OC5CCOCC5)cc4)cc3n2C)n1` [Example 188, N-(2-(2-methoxypyrimidin-4-yl)-1-methyl-1H-pyrrolo[3,2-c]pyridin-6-yl)-4-(tetrahydro-2H-pyran-4-yloxy)benzamide]: the inhibition at 1 µM (single point inhibition @ 1 uM) is 0 to 33%. Also, the inhibition at 10 µM under setting [3] fell in the range of 67 to 100%.
For `CC(=O)Nc1cc2[nH]c(-c3ccncc3)cc2cn1` [Example 181, N-(2-(pyridin-4-yl)-1H-pyrrolo[3,2-c]pyridin-6-yl)acetamide], in that order: 0 to 33% and 67 to 100%.
Turning to `Cc1cn(C)nc1C(=O)Nc1cc2[nH]c(-c3ccncc3)cc2cn1` [Example 281, 1,4-dimethyl-N-(2-(pyridin-4-yl)-1H-pyrrolo[3,2-c]pyridin-6-yl)-1H-pyrazole-3-carboxamide], the inhibition at 1 µM under setting [1] is 0 to 33%. Moreover, the inhibition at 10 µM under setting [2] lay in the range of 0 to 33%.
As to `Cc1cc(-c2cc3cnc(NC(=O)N(C)C)cc3[nH]2)ccn1` [Example 291, 1,1-dimethyl-3-(2-(2-methylpyridin-4-yl)-1H-pyrrolo[3,2-c]pyridin-6-yl)urea], the inhibition at 1 µM under setting [1] fell in the range of 0 to 33%. The inhibition at 10 µM under setting [2] was 0 to 33%.
Consider `Cn1cc(C(=O)Nc2cc3[nH]c(-c4ccc(C(F)(F)F)nc4)cc3cn2)cn1` [Example 306, 1-methyl-N-(2-(6-(trifluoromethyl)pyridin-3-yl)-1H-pyrrolo[3,2-c]pyridin-6-yl)-1H-pyrazole-4-carboxamide], for which, under setting [1], the inhibition at 1 µM was in the range of 0 to 33%. The inhibition at 10 µM under setting [2] is 0 to 33%.
With `c1ccc(Nc2cc3[nH]c(-c4cccnc4)cc3cn2)cc1` [Example 189, N-phenyl-2-(pyridin-3-yl)-1H-pyrrolo[3,2-c]pyridin-6-amine], under “single point inhibition @ 1 uM”, the inhibition at 1 µM fell in the range of 0 to 33%. Under setting [3], the inhibition at 10 µM was in the range of 67 to 100%.
In turn, `Cc1ccc(-c2cc3cnc(NC(=O)C4CC4)cc3n2C)nc1` [Example 347, N-(1-methyl-2-(5-methylpyridin-2-yl)-1H-pyrrolo[3,2-c]pyridin-6-yl)cyclopropanecarboxamide] yielded a concentration for a half-maximal effect (EC50) above 1 µM.
In turn, `Cc1cc(-c2cc3cnc(NC4CCNCC4)cc3n2C)ncn1` [Example 120, 1-methyl-2-(6-methylpyrimidin-4-yl)-N-(piperidin-4-yl)-1H-pyrrolo[3,2-c]pyridin-6-amine] had an EC50 above 1 µM.
Consider `CCOc1nccc(-c2cc3cnc(NC(=O)C4C5CCCCC54)cc3[nH]2)n1` (centres unmarked) [Example 158, N-(2-(2-ethoxypyrimidin-4-yl)-1H-pyrrolo[3,2-c]pyridin-6-yl)bicyclo[4.1.0]heptane-7-carboxamide], for which the inhibition at 1 µM (single point inhibition @ 1 uM) was 0 to 33%. The inhibition at 10 µM under setting [3] is 67 to 100%.
`Cc1cc(-c2cc3cnc(NC4CCN(C)CC4)cc3[nH]2)ccn1` [Example 112, N-(1-methylpiperidin-4-yl)-2-(2-methylpyridin-4-yl)-1H-pyrrolo[3,2-c]pyridin-6-amine] displayed an EC50 above 1 µM.
For the compound `Cc1cc(-c2cc3cnc(NC(=O)c4ncoc4C)cc3[nH]2)ccn1` [Example 290, 5-methyl-N-(2-(2-methylpyridin-4-yl)-1H-pyrrolo[3,2-c]pyridin-6-yl)oxazole-4-carboxamide], the inhibition at 1 µM under setting [1] was 0 to 33%. Besides, under setting [2], the inhibition at 10 µM was in the range of 0 to 33%.
